Data taken from ChEMBL document CHEMBL4627251, “Identification of potent pyrazole based APELIN receptor (APJ) agonists” (Bioorg Med Chem, 2020).

Key:
[1] = target: T1, Type-1 angiotensin II receptor (Homo sapiens, UniProt P30556); assay: Agonist activity at human AGTR1 stably expressed in CHO cells assessed as increase in intracellular calcium mobilization measured at 1 sec intervals for 90 sec by calcium 5 dye based FLIPR assay; format: functional, cell-based
T1 sequence (P30556 whole entry): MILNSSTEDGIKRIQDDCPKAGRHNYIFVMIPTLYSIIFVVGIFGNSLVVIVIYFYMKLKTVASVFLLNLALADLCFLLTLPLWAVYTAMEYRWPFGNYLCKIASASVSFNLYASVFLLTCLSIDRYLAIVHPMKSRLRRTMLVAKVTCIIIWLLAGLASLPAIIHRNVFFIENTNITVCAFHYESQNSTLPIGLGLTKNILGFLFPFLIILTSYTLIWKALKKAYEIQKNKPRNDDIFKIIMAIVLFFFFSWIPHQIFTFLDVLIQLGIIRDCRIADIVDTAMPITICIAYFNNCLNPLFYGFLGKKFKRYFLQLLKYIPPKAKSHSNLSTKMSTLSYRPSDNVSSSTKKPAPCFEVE

Apelin receptor [2] = target: T2, Apelin receptor (Homo sapiens, UniProt P35414)
T2 sequence (P35414 whole entry): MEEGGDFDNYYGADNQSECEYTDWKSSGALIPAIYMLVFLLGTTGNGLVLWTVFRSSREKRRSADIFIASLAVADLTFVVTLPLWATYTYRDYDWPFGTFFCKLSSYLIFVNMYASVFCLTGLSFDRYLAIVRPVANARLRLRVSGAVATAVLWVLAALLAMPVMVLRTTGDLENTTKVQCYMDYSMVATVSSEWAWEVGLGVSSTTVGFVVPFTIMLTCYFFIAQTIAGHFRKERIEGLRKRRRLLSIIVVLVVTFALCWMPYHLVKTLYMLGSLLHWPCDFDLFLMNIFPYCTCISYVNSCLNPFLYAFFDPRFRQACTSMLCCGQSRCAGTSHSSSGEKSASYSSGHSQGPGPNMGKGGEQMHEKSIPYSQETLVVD
Description: Agonist activity at human APJ receptor stably expressed in CHO cells assessed as inhibition of forskolin-induced cAMP accumulation measured after 30 mins by Eu-cAMP tracer based TR-FRET assay

Apelin receptor [3] = target: T2, Apelin receptor; remark: listed apart in the source
Description: Agonist activity at human APJ receptor stably expressed in CHO cells co-expressing Galphaq16 assessed as increase in intracellular calcium mobilization measured at 1 sec intervals for 90 secs by calcium 5 dye based FLIPR assay

Apelin receptor [4] = target: T2, Apelin receptor; remark: listed apart in the source
Description: Agonist activity at human APJ receptor stably expressed in CHOK1 cells assessed as induction of beta-arrestin 2 recruitment incubated for 90 mins by PathHunter assay

SMILES | EC50 [1] [µM] | further results
COc1cccc(OC)c1-c1cc(C(=O)N[C@@H](CCC2CCCCC2)CC(=O)NC2CCC2)nn1C1CCCCC1 | > 10 | –
CCC(O)CNC(=O)C[C@H](CCC1CCCCC1)NC(=O)c1cc(-c2c(OC)cccc2OC)n(CC(C)C)n1 (some centres undefined) | > 10 | –
CC[C@@H](O)CNC(=O)C[C@H](CCC1CCCCC1)NC(=O)c1cc(-c2c(OC)cccc2OC)n(CC(C)C)n1 | > 10 | –
COC(=O)CN(C)C(=O)[C@H](CCc1ccccc1)NC(=O)c1cc(-c2c(OC)cccc2OC)n(CC(C)C)n1 | > 10 | –
COc1cccc(OC)c1-c1cc(C(=O)N[C@@H](CCC2CCCCC2)CC(=O)NC2CCC2)nn1C1CCCC1 | > 10 | –
COc1cccc(OC)c1-c1cc(C(=O)N[C@@H](CCC2CCCCC2)CC(=O)NC2CCC2)nn1CC(C)C | > 10 | –
COc1cccc(OC)c1-c1cc(C(=O)N[C@@H](CCc2ccccc2)CC(=O)O)nn1CC(C)C | – | EC50 (Apelin receptor [2]): > 10 µM; EC50 (Apelin receptor [3]): > 10 µM; EC50 (Apelin receptor [4]): > 10 µM
CCC(=O)CNC(=O)C[C@H](CCC1CCCCC1)NC(=O)c1cc(-c2c(OC)cccc2OC)n(CC(C)C)n1 | > 10 | –
COc1cccc(OC)c1-c1cc(C(=O)N[C@@H](CCc2ccccc2)CC(=O)NC2CCC2)nn1CC(C)C | > 10 | –
CCC(=O)CNC(=O)[C@H](CCc1ccccc1)NC(=O)c1cc(-c2c(OC)cccc2OC)n(CC(C)C)n1 | > 10 | –
COc1cccc(OC)c1-c1cc(C(=O)N[C@@H](CCC2CCCCC2)CC(=O)O)nn1-c1ccc(F)cc1 | > 10 | –
CCCn1nc(C(=O)N[C@@H](CCC2CCCCC2)CC(=O)NC2CCC2)cc1-c1c(OC)cccc1OC | > 10 | –
